Results reported in paper PMC9603476, “Desaturation of the Sphingofungin Polyketide Tail Results in Increased Serine Palmitoyltransferase Inhibition” (Microbiology Spectrum, 2022).

Biological target: T1, SPT (serine palmitoyltransferase) (Sphingomonas paucimobilis, UniProt Q93UV0)
T1 construct: soluble homodimer
Test: HPLC-HRMS of 3-ketodihydrosphingosine; coupled PPi assay
Format: biochemical
Conditions: pH 7.5, 37°C

T1 sequence (Q93UV0 whole entry): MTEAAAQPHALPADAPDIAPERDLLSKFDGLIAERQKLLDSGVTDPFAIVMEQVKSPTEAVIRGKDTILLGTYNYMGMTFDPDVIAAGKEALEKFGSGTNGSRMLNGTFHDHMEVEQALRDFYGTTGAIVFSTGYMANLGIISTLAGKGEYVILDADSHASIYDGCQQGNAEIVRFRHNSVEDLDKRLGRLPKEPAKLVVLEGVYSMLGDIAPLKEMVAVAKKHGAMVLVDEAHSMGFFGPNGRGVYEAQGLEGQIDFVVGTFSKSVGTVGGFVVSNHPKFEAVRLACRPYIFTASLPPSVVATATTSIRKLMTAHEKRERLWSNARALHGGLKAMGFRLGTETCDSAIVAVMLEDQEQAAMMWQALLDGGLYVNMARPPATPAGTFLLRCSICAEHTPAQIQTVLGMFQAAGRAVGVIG

SMILES | HPLC-HRMS of 3-ketodihydrosphingosine; coupled PPi assay (with palmitoyl-CoA regenerated by FadD, serine concentration varied) | HPLC-HRMS of 3-ketodihydrosphingosine; coupled PPi assay (5 mM serine, palmitoyl-CoA regenerated by FadD)
N[C@@H](CO)C(=O)O [serine] | we verified the production of 3-ketodihydrosphingosine by our SPT reaction | –
CCCCCCCCCCCCCCCC(=O)SCCNC(=O)CCNC(=O)[C@H](O)C(C)(C)COP(=O)(O)OP(=O)(O)OC[C@H]1O[C@@H](n2cnc3c(N)ncnc32)[C@H](O)[C@@H]1OP(=O)(O)O [palmitoyl-CoA] | – | we verified the production of 3-ketodihydrosphingosine by our SPT reaction
